Target: T1, hNPRA (Homo sapiens, UniProt P16066)
T1 construct: expressed in transfected cells
T1 sequence (P16066 33-1061): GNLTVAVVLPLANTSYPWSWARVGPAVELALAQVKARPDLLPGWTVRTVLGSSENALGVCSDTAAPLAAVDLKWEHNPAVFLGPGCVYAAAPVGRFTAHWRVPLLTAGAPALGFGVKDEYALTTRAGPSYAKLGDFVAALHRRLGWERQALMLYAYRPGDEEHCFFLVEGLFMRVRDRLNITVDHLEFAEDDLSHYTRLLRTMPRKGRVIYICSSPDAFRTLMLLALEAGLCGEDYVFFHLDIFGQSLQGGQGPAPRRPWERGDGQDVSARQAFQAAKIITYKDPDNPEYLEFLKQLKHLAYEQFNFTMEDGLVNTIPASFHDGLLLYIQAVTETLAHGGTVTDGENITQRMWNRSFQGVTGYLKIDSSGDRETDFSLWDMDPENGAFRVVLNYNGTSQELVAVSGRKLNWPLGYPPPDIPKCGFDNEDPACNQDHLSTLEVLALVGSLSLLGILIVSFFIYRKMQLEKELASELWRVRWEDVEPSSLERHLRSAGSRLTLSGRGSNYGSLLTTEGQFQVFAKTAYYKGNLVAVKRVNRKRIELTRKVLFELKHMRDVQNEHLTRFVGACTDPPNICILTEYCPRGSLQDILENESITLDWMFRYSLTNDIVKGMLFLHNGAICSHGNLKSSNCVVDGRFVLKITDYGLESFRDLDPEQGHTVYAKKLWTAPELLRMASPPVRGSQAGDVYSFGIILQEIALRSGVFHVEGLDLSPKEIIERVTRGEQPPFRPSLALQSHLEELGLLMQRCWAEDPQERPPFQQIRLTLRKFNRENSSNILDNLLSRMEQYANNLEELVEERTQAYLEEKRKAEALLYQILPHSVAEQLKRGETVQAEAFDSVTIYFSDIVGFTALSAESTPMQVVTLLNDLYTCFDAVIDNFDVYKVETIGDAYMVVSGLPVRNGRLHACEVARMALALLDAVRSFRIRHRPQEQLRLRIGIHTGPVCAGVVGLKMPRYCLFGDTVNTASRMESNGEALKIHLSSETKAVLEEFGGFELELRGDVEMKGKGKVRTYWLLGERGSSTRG
Assay: NPRA Functional Cell Assay (cGMP HTRF, NPRA HEK JumpIn stable cells)
Assay type: cell-based
Conditions: cGMP production, 1 hour at 37° C., 10-point dose response
Text: NPRA Functional Cell Assay
Assay Buffer components HEPES and Opti-MEM® I Reduced-Serum with Glutamine (no phenol red) were from Gibco/Invitrogen (Thermo Fisher Scientific, Waltham, MA USA). 3-Isobutyl-1-methylxanthine (IBMX) and 4-(3-Butoxy-4-methoxybenzyl) imidazolidin-2-one (RO20) were obtained from Sigma-Aldrich (St. Louis, MO, USA). DPBS (Dulbecco's phosphate-buffered saline) without Ca2+ and Mg2+ was purchased from GE Healthcare Bio-Sciences (Pittsburgh, PA, USA). 384 well white Optiplates were from Perkin Elmer (Atlantic Highlands, NJ, USA). Human ANP (Atrial Natriuretic Peptide) (1-28) was purchased from Sigma-Aldrich (Catalog #A1663) and rat ANP (1-28) from Bachem (Torrance, CA, USA) (Catalog #H2100). Human-BNP (Human-Brain Natriuretic Peptide) (1-32 AA) was purchased from American Peptide Company (Sunnyvale, CA, USA) (product No. 14-1-90). cGMP kits were purchased from Cisbio. The assay ready frozen (ARF) Human/rat/dog NPRA HEK JumpIn Stable frozen cells (low passage number 5-11) were prepared in-house.
Test compounds were titrated in DMSO in a 10-point dose response in a separate step followed by a 100-fold dilution into the reaction. Positive response for each assay was determined using 10 nM rat-ANP peptide (rat cells) or 50 nM h-ANP peptide (human and dog cells).
Cells were thawed, washed with DPBS and resuspended in assay buffer (Opti-MEM+Glutamine, phenol red free media, 10 mM HEPES, 100 uM IBMX and 100 uM RO20) that was warmed to 37° C. Cells were then transferred to microplates via a Microplate Combi dispenser at a density of 1500, 400 and 1200 cells/well for human, rat and dog cells respectively, followed by acoustic transfer (Echo) of compound.
(§1) Compounds and cells were incubated at 37° C. with 5% CO2 for 1 hour, after which the cells were lysed and cGMP was captured using a CisBio cGMP HTRF assay kit. The TRF signal was measured with an Envision plate reader (emission set to 615 and 665 nm) after 1 hour incubation at ambient temperature. The TRF signal was converted to [cGMP] through the use of a cGMP calibration curve on each microplate. EC50's were generated from the resulting dose response curves by use of a 4 parameter logistic algorithm.
Assay Buffer components HEPES and Opti-MEM® I Reduced-Serum with Glutamine (no phenol red) were from Gibco/Invitrogen. 3-Isobutyl-1-methylxanthine (IBMX) and 4-(3-Butoxy-4-methoxybenzyl) imidazolidin-2-one (RO20) were obtained from Sigma. DPBS (Dulbecco's phosphate-buffered saline) without Ca2+ and Mg2+ was purchased from GE Healthcare Bio-Sciences (Pittsburgh, PA, USA). 384 well white Optiplates were from Perkin Elmer (Atlantic Highlands, NJ, USA). Human ANP (1-28) was purchased from Sigma (A1663) and rat ANP (1-28) from Bachem (H2100). Human-BNP (1-32 AA) was purchased from American Peptide Company (Sunnyvale, CA, USA) (product No. 14-1-90). cGMP kits were purchased from Cisbio (Bedford, MA, USA). The assay ready frozen (ARF) Human/rat/dog NPRA HEK JumpIn Stable frozen cells (low passage number 5-11) were prepared in-house.
as §1, with “Envision®” for “Envision”, “reader (Perkin Elmer)” for “reader”
hNPRA EC50 (nM) were determined for the compounds of Example 1 through Example 273 and are reported in the Experimental section of this application.

SMILES | EC50 [nM]
CC(C)(C)[C@H]1CCc2nc3sc(C(=O)N[C@H](CCN4CCC(O)CC4)c4ccc(-c5cnsc5)cc4)nc3cc2C1 (racemic) [Example 180, rac-(7S)-7-tert-butyl-N-[rac-(1R)-3-(4-hydroxy-1-piperidyl)-1-(4-isothiazol-4-ylphenyl)propyl]-5,6,7,8-tetrahydrothiazolo[5,4-b]quinoline-2-carboxamide] | 1440
CC(C)(C)[C@H]1CCc2nc3sc(C(=O)N[C@H](CCN4CCC(n5ccnc5)CC4)c4cccc(NS(C)(=O)=O)c4)cc3cc2C1 (racemic) [Example 17, ammonium; methylsulfonyl-[3-[rac-(1R)-3-(4-imidazol-1-y1-1-piperidy1)-1-[[rac-(6S)-6-tert-butyl-5,6,7,8-tetrahydrothieno[2,3-b]quinoline-2-carbonyl]amino]propyl]phenyl]azanide] | 1260
CC(C)(C)[C@H]1CCc2nc3sc(C(=O)N[C@H](CCN[C@H]4C[C@H](O)C4)c4ccccc4)cc3cc2C1 [Example 260, (6S)-6-tert-butyl-N-{(1R)-3-[(trans-3-hydroxycyclobutyl)amino]-1-phenylpropyl}-5,6,7,8-tetrahydrothieno[2,3-b]quinoline-2-carboxamide] | 2000
CC(C)(C)[C@H]1CCc2nc3sc(C(=O)N[C@H](CCN4CCC(O)C4)c4ccccc4)cc3cc2C1 (stereo partly drawn) [Example 261, (6S)-6-tert-butyl-N-[(1R)-3-(3-hydroxypyrrolidin-1-yl)-1-phenylpropyl]-5,6,7,8-tetrahydrothieno[2,3-b]quinoline-2-carboxamide] | 6320
CN(C)S(=O)(=O)Nc1ccc([C@@H](CCN2CC[C@H]2CO)NC(=O)c2nc3cc4c(nc3s2)CC[C@H](C(C)(C)C)C4)cn1 (racemic) [Example 213, rac-(7S)-7-tert-butyl-N-[rac-(1R)-1-[6-(dimethylsulfamoylamino)-3-pyridyl]-3-[rac-(2S)-2-(hydroxymethyl)azetidin-1-ium-1-yl]propyl]-5,6,7,8-tetrahydrothiazolo[5,4-b]quinoline-2-carboxamide; 2,2,2-trifluoroacetate] | 1010
CC(C)(C)[C@H]1CCc2nc3sc(C(=O)N[C@H](CCN4CCC(O)CC4)c4ccc(-c5ncns5)cc4)nc3cc2C1 (racemic) [Example 169, rac-(7S)-7-tert-butyl-N-[rac-(1R)-3-(4-hydroxy-1-piperidyl)-1-[4-(1,2,4-thiadiazol-5-yl)phenyl]propyl]-5,6,7,8-tetrahydrothiazolo[5,4-b]quinoline-2-carboxamide] | 793

Molecules with a lower EC50, results first:

EC50 [nM] | SMILES
696 | CN(CC[C@@H](NC(=O)c1cc2cc3c(nc2s1)CC[C@H](C(C)(C)C)C3)c1ccc(-c2ccc(=O)[nH]c2)cc1)C1CCCC1 (racemic) [Example 50, cyclopentyl-methyl-[rac-(3R)-3-[4-(6-oxo-1H-pyridin-3-yl)phenyl]-3-[rac-(6S)-6-tert-butyl-5,6,7,8-tetrahydrothieno[2,3-b]quinoline-2-carbonyl]amino]propyl] ammonium;formate]
692 | CC(C)(C)[C@H]1CCc2nc3sc(C(=O)N[C@H](CCN4CCC(O)C4)c4ccc(-c5ccc(=O)[nH]c5)cc4)nc3cc2C1 (mixture of isomers) [Example 78, rac-(7S)-7-tert-butyl-N-[rac-(1R)-3-(3-hydroxypyrrolidin-1-yl)-1-[4-(6-oxo-1H-pyridin-3-yl)phenyl]propyl]-5,6,7,8-tetrahydrothiazolo[5,4-b]quinoline-2-carboxamide]
655 | CC(C)(C)[C@H]1CCc2nc3sc(C(=O)N[C@H](CCN4CCC5(CC4)CNC(=O)O5)c4ccc(-c5ccc(=O)[nH]c5)cc4)cc3cc2C1 (racemic) [Example 40, rac-(6S)-6-tert-butyl-N-[rac-(1R)-3-(2-oxo-1-oxa-3-aza-8-azoniaspiro[4.5]decan-8-yl)-1-[4-(6-oxo-1H-pyridin-3-yl)phenyl]propyl]-5,6,7,8-tetrahydrothieno[2,3-b]quinoline-2-carboxamide;formate]
448 | CC(C)(C)[C@H]1CCc2nc3sc(C(=O)N[C@H](CCN4CCC(n5cnnc5)CC4)c4ccc(-c5ccc(=O)[nH]c5)cc4)cc3cc2C1 (racemic) [Example 29, rac-(6S)-6-tert-butyl-N-[rac-(1R)-1-[4-(6-oxo-1H-pyridin-3-yl)phenyl]-3-[4-(1,2,4-triazol-4-yl)piperidin-1-ium-1-yl]propyl]-5,6,7,8-tetrahydrothieno[2,3-b]quinoline-2-carboxamide;formate]
277 | CC(C)(C)[C@H]1CCc2nc3sc(C(=O)N[C@H](CCN4CCC(O)CC4)c4ccc(N5CC(=O)NC5=O)nc4)nc3cc2C1 [Example 220, (S)-7-(tert-butyl)-N-((R)-1-(6-(2,4-dioxoimidazolidin-1-yl)pyridin-3-yl)-3-(4-hydroxypiperidin-1-yl)propyl)-5,6,7,8-tetrahydrothiazolo[5,4-b]quinoline-2-carboxamide]
248 | CC(C)[C@]1(F)CCc2nc3sc(C(=O)N[C@H](CCN4CCC(O)CC4)c4ccc(-c5ccnnc5)nc4)nc3cc2C1 [Example 265, (S)-7-fluoro-N-((R)-3-(4-hydroxypiperidin-1-yl)-1-(6-(pyridazin-4-yl)pyridin-3-yl)propyl)-7-isopropyl-5,6,7,8-tetrahydrothiazolo[5,4-b]quinoline-2-carboxamide]
176 | CC(C)(C)[C@H]1CCc2nc3sc(C(=O)N[C@H](CCN4CCC(O)CC4)c4cccc(C(=O)N[C@H]5CNC[C@@H]5O)c4)nc3cc2C1 (racemic) [Example 137, rac-(7S)-7-tert-butyl-N-[rac-(1R)-3-(4-hydroxy-1-piperidyl)-1-[3-[[rac-(3S,4S)-4-hydroxypyrrolidin-3-yl]carbamoyl]phenyl]propyl]-5,6,7,8-tetrahydrothiazolo[5,4-b]quinoline-2-carboxamide]
96.5 | CC(C)(C)[C@H]1CCc2nc3sc(C(=O)N[C@H](CCN4CCC(O)CC4)c4cccc(C(=O)N[C@@H]5CCNC5)c4)nc3cc2C1 (racemic) [Example 130, rac-(7S)-7-tert-butyl-N-[rac-(1R)-3-(4-hydroxy-1-piperidyl)-1-[3-[[rac-(3R)-pyrrolidin-3-yl]carbamoyl]phenyl]propyl]-5,6,7,8-tetrahydrothiazolo[5,4-b]quinoline-2-carboxamide]

Source: patent publication US12440496B2, “Natriuretic peptide receptor a agonists useful for the treatment of cardiometabolic diseases, kidney disease and diabetes” (Merck Sharp & Dohme LLC, priority 2019, dated 2025)
